Experimental data from PMC10334471, “Tumor-targeted dual-action NSAID-platinum(IV) anticancer prodrugs” (Inorganic Chemistry Frontiers, 2023).

Experiments:
[1] = Stability in aqueous buffer pH 7.4 (HPLC); type: physicochemical; conditions: for Stability in aqueous solution: 1 mM, 250 mM phosphate buffer pH 7.4, 20 °C, 25 h, HPLC
Protocol: (§1) Phosphate buffer (250 mM, pH 7.4) containing 1 mM platinum compound was incubated at 20 °C, with and without the addition of 10 eq. L-ascorbic acid. […] A gradient of 5–95% over 5 minutes was used. To evaluate the current state of the reaction, the peak area of the parental complex was used.

[2] = Reduction kinetics with 10 eq. ascorbic acid (UHPLC); type: physicochemical
Protocol: as §1

albumin = biological target: T1, albumin (Bos taurus, UniProt P02769); test: Albumin binding in fetal calf serum by SEC-ICP-MS; type: in vitro ADME; conditions: 100 μM in FCS (150 mM phosphate buffer, pH 7.4), 37 °C
T1 construct: Fetal calf serum was purchased from Sigma-Aldrich and buffered with 150 mM phosphate pH 7.4; tissue Sigma-Aldrich; host or cells: fetal calf serum
T1 sequence (P02769 25-607): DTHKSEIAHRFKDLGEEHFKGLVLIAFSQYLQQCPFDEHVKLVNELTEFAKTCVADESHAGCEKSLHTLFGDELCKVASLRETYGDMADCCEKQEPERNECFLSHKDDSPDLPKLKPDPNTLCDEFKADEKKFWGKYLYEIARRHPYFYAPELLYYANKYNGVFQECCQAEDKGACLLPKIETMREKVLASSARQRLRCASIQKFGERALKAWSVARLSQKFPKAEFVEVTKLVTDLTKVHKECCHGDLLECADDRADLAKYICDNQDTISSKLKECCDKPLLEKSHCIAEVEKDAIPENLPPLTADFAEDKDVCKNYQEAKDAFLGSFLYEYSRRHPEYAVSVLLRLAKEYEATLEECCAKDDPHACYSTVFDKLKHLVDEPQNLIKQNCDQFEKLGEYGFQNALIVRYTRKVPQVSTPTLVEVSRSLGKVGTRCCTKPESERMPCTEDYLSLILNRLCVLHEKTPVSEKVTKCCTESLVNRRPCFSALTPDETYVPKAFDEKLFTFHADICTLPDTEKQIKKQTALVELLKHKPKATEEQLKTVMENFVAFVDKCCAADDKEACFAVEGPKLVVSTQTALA
Protocol: Fetal calf serum was purchased from Sigma-Aldrich and buffered with 150 mM phosphate pH 7.4 in order to guarantee a stable pH. The platinum(IV) complexes (5 mM) were dissolved in 150 mM phosphate buffer (pH 7.4) and diluted 1 : 50 in the buffered serum to obtain a final concentration of 100 μM. The samples were then incubated in the autosampler at 37 °C and analyzed every 1 h for 6 h. Between each sample a pure water blank was measured. For SEC-ICP-MS measurements an Agilent 1260 Infinity system coupled to an Agilent 7800 ICP-MS equipped with a dynamic reaction cell was used. Oxygen (purity 5.5, Messer Austria GmbH, Gumpoldskirchen, Austria) was used as reaction gas.

[3] = Serum levels and organ distribution of platinum in CT26-bearing mice (ICP-MS); type: in vivo, Balb/c mice; conditions: 24 h after single i.v. dose equimolar to 9 mg kg^−1 oxaliplatin
Protocol: CT26 cells (5 × 10^5 cells in 50 μl serum-free medium) were injected subcutaneously (s.c.) into the right flank of female BALB/c mice. […] After 24 h, the animals were anesthetized and blood was drawn. The animals were sacrificed by cervical dislocation and tumors as well as organs were collected for measurement with ICP-MS. To isolate serum and blood pellets, blood was centrifuged for 10 min at 3000 rpm. The supernatant characterized as serum was transferred to a new tube and centrifuged again to get rid of residual red blood cells.

CT26 allografts [4] = test: Anticancer activity i.v. in CT26-bearing mice; type: in vivo, Balb/c mice
Protocol: (§2) All experiments were executed according to the regulation of the Ethics Committee for the Care and Use of Laboratory Animals at the Medical University Vienna. 8–12 weeks old BALB/c were kept in a pathogen-free environment with a 12 h light dark-cycle with ad libitum access to food and water. Every procedure was performed in a laminar airflow under sterile condition. Tumor growth and possible side effects of drug treatment were evaluated by daily recording the tumor size by caliper measurement according to the formula length × width^2/2 and parameters of the animal's overall health conditions.
(§3) CT26 cells (5 × 10^5 cells in 50 μl serum-free medium) were injected s.c. into the right flank of female BALB/c mice. […] Asa was treated orally using 50 mg kg^−1 in 5% DMSO/0.9% NaCl. Every day, the animals were monitored for the overall health conditions. Additionally, tumor size was measured. In case of a decreased body weight of ∼20% or ulcerated tumors, animals were sacrificed by cervical dislocation and tumors as well as organs were collected.

RKO = test: MTT assay, 72 h, RKO; type: cell-based; conditions: 72 h treatment, mean ± SD
Protocol: (§4) All cell cultures were grown at 37 °C in a humidified atmosphere containing 5% CO2. HCT116, RKO and HT-29 cells were cultured in McCoy's 5A Modified Media (Sigma-Aldrich, St. Louis, MO, USA) supplemented with 10% heat-inactivated fetal calf serum (FCS, PAA, Linz, Austria) and 2 mM glutamine (Sigma-Aldrich, St. Louis, MO, USA). The murine (Balb/c) colon cancer cell model CT26 (purchased from American Type Culture Collection, Manassas, VA, USA) were cultured in DMEM/F12 supplemented with 10% fetal calf serum (FCS). SW480 and Caco-2 cells were cultured in MEME media supplemented with 10% and 20% FCS, respectively. All cell culture media and reagents were purchased from Sigma-Aldrich Austria. […] The cells were regularly checked for Mycoplasma contamination.
(§5) Depending on their proliferation rate, cells were seeded at a density of 3500–5000 cells per well in 96-well microtiter plates and allowed to adhere overnight. […] Cell viability was determined using the 3-(4,5-dimethylthiazol-2-yl)-2,5-diphenyltetrazolium bromide (MTT) assay (EZ4U, Biomedia, Vienna, Austria) according to the manufacturer's recommendation. Depending on the metabolic capacity, the cell lines were incubated between one and three hours at 37 °C and subsequently absorbance was measured at 450 nm (620 nm as a reference) with a Tecan Reader infinite® M200Pro (Tecan Group Ltd, Switzerland). Data were analyzed using Graph Pad prism (version 8.0.1) by using the point-to-point function. […] Following, dose–response curves were calculated using the point-to-point function.

SW480 = test: MTT assay, 72 h, SW480; type: cell-based; conditions: 72 h treatment, mean ± SD
Protocol: as §4, §5

HT-29 = test: MTT assay, 72 h, HT-29; type: cell-based; conditions: HT-29, MTT, 72 h treatment, mean ± SD
Protocol: as §4, §5

HCT116 = test: MTT assay, 72 h, HCT116; type: cell-based; conditions: mean ± SD
Protocol: as §4, §5

HCT116/OxR = test: MTT assay, 72 h, HCT116/OxR (oxaliplatin-resistant); type: cell-based; conditions: mean ± SD
Protocol: as §4, §5

CT26 (murine) = test: MTT assay, 72 h, CT26; type: cell-based; conditions: 72 h treatment, mean ± SD
Protocol: as §4, §5

[5] = Released salicylic acid in serum of mice after single i.v. administration (UHPLC-MS)
Protocol: After 10 min, 1 h and 24 h blood was collected via the facial vein. Serum was isolated by centrifugation at 900 g for 10 min for two times and stored at −80 °C. Platinum content was detected by ICP-MS measurements, using an Agilent 7800 (Agilent Technologies, Tokyo, Japan) equipped with an Agilent SPS 4 autosampler (Agilent Technologies, Tokyo, Japan) and a MicroMist nebulizer. The Agilent MassHunter software package (Workstation Software, Version C.01.04, 2018) was used for data evaluation. The ICP-MS operation parameters are given in Table S1. ^† Salicylic acid was extracted and detected as described above.

Caco-2 = test: MTT assay, 72 h, Caco-2; type: cell-based; conditions: Caco-2, MTT, 72 h treatment, mean ± SD
Protocol: as §4, §5

[6] = Preliminary oral tolerability experiments in tumor-free mice; type: in vivo; conditions: p.o., equivalent to 7.5 mg kg^−1 Asa and 12.5 mg kg^−1 cisplatin
Source text: It is well known that COX-2 is involved in the paracrine signaling between immune cells, resulting in a pro-tumorigenic tumor microenvironment.[10,33] Consequently, we got interested in the impact of the Asa ligand on the anticancer activity of the drugs in vivo. Therefore, we chose immune-competent murine colon cancer CT26 allografts as test system, which were characterized by high COX-2 expression (Fig. S4 ^†). […] Thus, the experiment was stopped on day 19 due to a distinct drop in body weight in these animals. As Asa is clinically applied p.o., we tested the efficacy of OxAsaOAc and asplatin in an oral application setting. […] For the therapy experiment, the animals were treated with OxAsaOAc and asplatin for five subsequent days over two weeks. […] Consequently, we concluded that the drug doses reaching the tumor in these therapy settings were insufficient, which prompted us to aim for carrier systems with enhanced tumor-targeting properties.

CT26 allografts [7] = test: Oral anticancer activity in CT26 allografts; type: in vivo, Balb/c mice
Protocol: It is well known that COX-2 is involved in the paracrine signaling between immune cells, resulting in a pro-tumorigenic tumor microenvironment.[10,33] Consequently, we got interested in the impact of the Asa ligand on the anticancer activity of the drugs in vivo. […] As Asa is clinically applied p.o., we tested the efficacy of OxAsaOAc and asplatin in an oral application setting. […] For the therapy experiment, the animals were treated with OxAsaOAc and asplatin for five subsequent days over two weeks.
as §2

CT26 allografts [8] = type: in vivo; conditions: Asa 50 mg kg^−1 p.o.
Protocol: as §2, §3

[9] = Hydrolysis of Asa spiked in fresh murine blood (HPLC-MS); conditions: after 30 min blood clotting and serum extraction
Protocol: To this end, we spiked Asa in fresh murine blood, isolated the serum, applied the extraction protocol and measured the samples via HPLC-MS.
The extraction method for acetylsalicylic acid and salicylic acid from Grobecker and coworkers was used.[26] For method validation and quantification, 99 μl mouse serum were spiked with Asa or salicylic acid dissolved in 1 μl DMSO in order to obtain a range of concentrations from 1 to 100 μM. Immediately afterwards the samples were acidified with 100 μl HCl/H3PO4 (0.1 M each) and extracted via addition of 600 μl of acetonitrile. After vigorous shaking for 1 min the suspension was stored at 4 °C for ten minutes before being centrifuged at 9500g for 10 min. The supernatant was taken up with a pipette and transferred into an Eppendorf tube with approx. 100 mg of solid NaCl. After vigorous shaking, the samples were again stored at 4 °C for 5 min and centrifuged at 9500 g for 5 min. The organic layer was taken up and measured on an Agilent 1260 Infinity II system using a Waters Acquity UPLC BEH C18 1.7 μm 3.0 × 50 mm column coupled to an Agilent InfinityLab LC/MSD mass spectrometer in negative mode. Milli-Q water, containing 0.1% formic acid, and acetonitrile containing 0.1% formic acid were used as eluents. A gradient of 5–95% acetonitrile in 6 min was used.

[10] = compared to all four non-albumin-binding drugs
[11] = Homo sapiens, HCT-116, 72 h treatment

SMILES: CC(=O)Oc1ccccc1C(=O)[O][Pt-2]12([O]C(=O)NCCOCCOCCOCCOCCN3C(=O)C=CC3=O)([NH2+][C@@H]3CCCC[C@H]3[NH2+]1)[O]C(=O)C(=O)[O]2 [OxAsaMal, (OC-6-34)-(2-acetoxybenzoato)[(1R,2R)-1,2-cyclohexanediamino]oxalato[(14-(2,5-dioxo-2,5-dihydro-1H-pyrrol-1-yl)-3,6,9,12-tetraoxatetradecyl)carbamato]platinum(IV)]
- Stability of the platinum core ([1]; phosphate-buffered saline (PBS) pH 7.4, 24 h): high stability of the platinum core
- Reduction behavior (monitored by released Asa and oxaliplatin) ([2]; in the presence of ascorbic acid, comparable to OxAsaOAc): slow reduction behavior
- Fraction bound to the albumin fraction (albumin; 0 h time point): 77%
- Fraction bound to the albumin fraction (albumin; after 1 h): 95%
- Platinum plasma levels [3, 10]: significantly higher plasma levels
- Tumor accumulation of platinum [3, 10]: higher tumor accumulation
- Prolonged overall survival (CT26 allografts [4]; i.v., 4-times over 2 weeks, dose equimolar to 9 mg kg^−1 oxaliplatin, CT26): ~20 days
- Tolerability (body weight) (CT26 allografts [4]; i.v., 4-times over 2 weeks, doses equimolar to 9 mg kg^−1 oxaliplatin): well tolerated
- Anticancer activity (tumor growth, overall survival) (CT26 allografts [4]; i.v., 4-times over 2 weeks, doses equimolar to 9 mg kg^−1 oxaliplatin, CT26): long-lasting disease control over several days

SMILES: N.N.[Cl][Pt][Cl] [Cisplatin, cisplatin]
- IC50 (RKO): 1.6 ± 0.3 µM
- IC50 (SW480): 7.8 ± 1.3 µM
- IC50 (HT-29): 10.1 ± 0.3 µM
- IC50 (HCT116; 72 h treatment): 3.1 ± 0.5 µM
- IC50 (HCT116/OxR; 72 h treatment): 10.4 ± 1.8 µM
- IC50 (CT26 (murine)): 1.2 ± 0.2 µM

SMILES: CC(=O)Oc1ccccc1C(=O)[O][Pt]([OH])([Cl])[Cl].N.N [Asplatin]
- Stability in aqueous solution [1]: high stability
- Remaining intact platinum(IV) complex at 1 h ([2]; 1 mM, 250 mM phosphate buffer pH 7.4, 20 °C, 10 eq. ascorbic acid, 1 h): no remaining intact platinum(IV) complex could be observed
- Free salicylic acid in serum, share of administered dose ([5]; 10 min after single i.v. dose equimolar to 9 mg kg^−1 oxaliplatin, tumor-free Balb/c mice): ~30 mol%
- Salicylic acid level in serum ([5]; 24 h after single i.v. dose equimolar to 9 mg kg^−1 oxaliplatin, below LOD): < 3 µM
- IC50 (Caco-2): 6.4 ± 1.1 µM
- IC50 (RKO): 0.9 µM
- IC50 (SW480): 0.6 ± 0.1 µM
- IC50 (HT-29): 9.2 ± 0.6 µM
- IC50 (HCT116; 72 h treatment): 2.2 ± 0.1 µM
- IC50 (HCT116/OxR; 72 h treatment): 8.7 ± 1.8 µM
- IC50 (CT26 (murine)): 2.5 ± 0.2 µM
- Oral dose that could be used (tolerability) [6]: 20.7 mg/kg
- Impact on tumor growth (CT26 allografts [7]; asplatin 20.7 mg kg^−1 p.o., five subsequent days over two weeks): none of the drugs had any impact on tumor growth
- Platinum levels in liver and kidney [3]: exceptionally high
- Toxicity i.v. (CT26 allografts [4]; reason for lower i.v. dose equimolar to 3 mg kg^−1 cisplatin): high toxicity

SMILES: Cc1ccc(-c2cc(C(F)(F)F)nn2-c2ccc(S(N)(=O)=O)cc2)cc1 [Celecoxib]
- IC50 (Caco-2; Homo sapiens): 79.2 ± 3.6 µM
- IC50 (RKO; Homo sapiens): 79.3 ± 4.9 µM
- IC50 (SW480; Homo sapiens): 83.1 ± 1.5 µM
- IC50 (HT-29; Homo sapiens): 68 ± 6.4 µM
- IC50 (HCT116; [11]): 76.2 ± 4.3 µM
- IC50 (HCT116/OxR; [11]): 79.2 ± 2.7 µM
- IC50 (CT26 (murine); Mus musculus): 60.9 ± 2.5 µM

SMILES: CC(=O)Oc1ccccc1C(=O)O [Asa, acetylsalicylic acid]
- Response of tumor model (tumor growth) (CT26 allografts [8]): responsiveness
- Impact on tumor growth (CT26 allografts [7]; Asa 15 mg kg^−1 p.o.): no impact on tumor growth
- Hydrolysis of Asa to salicylic acid [9]: more than half of Asa was hydrolyzed to salicylic acid

SMILES: CC(=O)[O][Pt-2]12([O]C(C)=O)([NH2+][C@@H]3CCCC[C@H]3[NH2+]1)[O]C(=O)C(=O)[O]2 [Ox(OAc)2]
- Stability in aqueous solution [1]: high stability
- Intact complex after 6 h ([2]; 1 mM, 250 mM phosphate buffer pH 7.4, 20 °C, 10 eq. ascorbic acid, 6 h): 97%
- Intact complex after 24 h ([2]; 1 mM, 250 mM phosphate buffer pH 7.4, 20 °C, 10 eq. ascorbic acid, 24 h): 81%
- IC50 (RKO): 9 ± 1 µM
- IC50 (SW480): 13.2 ± 2.5 µM
- IC50 (HT-29): 136 ± 34.6 µM
- IC50 (HCT116; 72 h treatment): 17.4 ± 2.4 µM
- IC50 (HCT116/OxR; 72 h treatment): > 100 µM
- IC50 (CT26 (murine)): 22.5 ± 2.8 µM
